Results from patent publication US8053418B2, “Anti-penicillin resistant pneumococci agent and novel 16-membered macrolide derivative” (Microbial Chemistry Research Foundation, priority 2005, dated 2011).
≈ marks a conversion by molar mass, not a printed value.

Columns and labels:
Type in all cases: cell-based
[1] = tested on: Streptococcus pneumoniae IMC B-0919 (PRSP); assay: Antimicrobial activity test (MIC), clinical isolate IMC B-0919
Procedure: (§1) Using Streptococcus pneumoniae that include clinical isolates of PRSP, the antimicrobial activity of each of the prepared anti-PRSP agents was measured in accordance with the “determination method of minimum inhibitory concentration of drug against bacteria” of Japanese Society of Chemotherapy (for re-revised version, see Chemotherapy 29; 76, 1981).
(§2) 11 test strains of Streptococcus pneumoniae including IMC B-0919 are all clinical isolates, of which 2 strains, IMC B-0921 and IMC B-1229, are classified into penicillin susceptible Streptococcus pneumoniae (PSSP) and the remaining 9 strains are classified into penicillin-resistant Streptococcus pneumoniae (PRSP) (according to NCCLS standards).

[2] = tested on: Streptococcus pneumoniae IMC B-0920 (PRSP); assay: Antimicrobial activity test (MIC), clinical isolate IMC B-0920
Procedure: as §1, §2

[3] = tested on: Streptococcus pneumoniae IMC B-0922 (PRSP); assay: Antimicrobial activity test (MIC), clinical isolate IMC B-0922
Procedure: as §1, §2

[4] = tested on: Streptococcus pneumoniae IMC B-1231 (PRSP); assay: Antimicrobial activity test (MIC), clinical isolate IMC B-1231
Procedure: as §1, §2

[5] = tested on: Streptococcus pneumoniae IMC B-1232 (PRSP); assay: Antimicrobial activity test (MIC), clinical isolate IMC B-1232
Procedure: as §1, §2

[6] = tested on: Streptococcus pneumoniae IMC B-1233 (PRSP); assay: Antimicrobial activity test (MIC), clinical isolate IMC B-1233
Procedure: as §1, §2

[7] = tested on: Streptococcus pneumoniae IMC B-1234 (PRSP); assay: Antimicrobial activity test (MIC), clinical isolate IMC B-1234
Procedure: as §1, §2

[8] = tested on: Streptococcus pneumoniae IMC B-1235 (PRSP); assay: Antimicrobial activity test (MIC), clinical isolate IMC B-1235
Procedure: as §1, §2

[9] = tested on: Streptococcus pneumoniae IMC B-1236 (PRSP); assay: Antimicrobial activity test (MIC), clinical isolate IMC B-1236
Procedure: as §1, §2

[10] = tested on: Streptococcus pneumoniae IMC B-0921 (PSSP); assay: Antimicrobial activity test (MIC), clinical isolate IMC B-0921
Procedure: as §1, §2

[11] = tested on: Streptococcus pneumoniae IMC B-1229 (PSSP); assay: Antimicrobial activity test (MIC), clinical isolate IMC B-1229
Procedure: as §1, §2

[12] = PRSP clinical isolate IMC B-0919
[13] = PRSP clinical isolate IMC B-0920
[14] = PRSP clinical isolate IMC B-0922
[15] = PRSP clinical isolate IMC B-1231
[16] = PRSP clinical isolate IMC B-1232
[17] = PRSP clinical isolate IMC B-1233
[18] = PRSP clinical isolate IMC B-1234
[19] = PRSP clinical isolate IMC B-1235
[20] = PRSP clinical isolate IMC B-1236
[21] = PSSP clinical isolate IMC B-0921
[22] = PSSP clinical isolate IMC B-1229
[23] = Streptococcus pneumoniae IMC B-0919, PRSP
[24] = Streptococcus pneumoniae IMC B-0920, PRSP
[25] = Streptococcus pneumoniae IMC B-0922, PRSP
[26] = Streptococcus pneumoniae IMC B-1231, PRSP
[27] = Streptococcus pneumoniae IMC B-1232, PRSP
[28] = Streptococcus pneumoniae IMC B-1233, PRSP
[29] = Streptococcus pneumoniae IMC B-1234, PRSP
[30] = Streptococcus pneumoniae IMC B-1235, PRSP
[31] = Streptococcus pneumoniae IMC B-1236, PRSP
[32] = Streptococcus pneumoniae IMC B-0921, PSSP
[33] = Streptococcus pneumoniae IMC B-1229, PSSP

Row | Structure (SMILES) | MIC [1, 12] [µg/mL] | MIC [2, 13] [µg/mL] | MIC [3, 14] [µg/mL] | MIC [4, 15] [µg/mL] | MIC [5, 16] [µg/mL] | MIC [6, 17] [µg/mL] | MIC [7, 18] [µg/mL] | MIC [8, 19] [µg/mL] | MIC [9, 20] [µg/mL] | MIC [10, 21] [µg/mL] | MIC [11, 22] [µg/mL] | MIC [1, 23] [µg/mL] | MIC [2, 24] [µg/mL] | MIC [3, 25] [µg/mL] | MIC [4, 26] [µg/mL] | MIC [5, 27] [µg/mL] | MIC [6, 28] [µg/mL] | MIC [7, 29] [µg/mL] | MIC [8, 30] [µg/mL] | MIC [9, 31] [µg/mL] | further results
1 | CCC1OC(=O)CCC(C)C(OC2OC(C)CC(N(C)C)C2O)C(CC=O)CC(C)C(=O)C=CC(C)=CC1COC(=O)Cc1ccccc1 (stereo not shown) [MKT-2005] | 0.2 (≈ 0.292 µM) | 0.2 (≈ 0.292 µM) | 0.1 (≈ 0.146 µM) | 0.78 (≈ 1.14 µM) | 0.05 (≈ 0.0731 µM) | <0.025 | 0.1 (≈ 0.146 µM) | 1.56 (≈ 2.28 µM) | 3.13 (≈ 4.58 µM) | 0.05 (≈ 0.0731 µM) | 0.1 (≈ 0.146 µM) | – | – | – | – | – | – | – | – | – | –
2 | CCC1OC(=O)CCC(C)C(OC2OC(C)CC(N(C)C)C2O)C(CC=O)CC(C)C(=O)C=CC(C)=CC1COC(=O)NCc1ccc(OC)cc1 (stereo not shown) [MKT-1011] | 0.1 (≈ 0.137 µM) | 0.1 (≈ 0.137 µM) | 0.2 (≈ 0.274 µM) | 50 (≈ 68.6 µM) | 0.1 (≈ 0.137 µM) | 0.1 (≈ 0.137 µM) | 0.1 (≈ 0.137 µM) | 6.25 (≈ 8.57 µM) | 1.56 (≈ 2.14 µM) | 0.1 (≈ 0.137 µM) | 0.2 (≈ 0.274 µM) | 0.1 (≈ 0.137 µM) | 0.1 (≈ 0.137 µM) | 0.2 (≈ 0.274 µM) | 50 (≈ 68.6 µM) | 0.1 (≈ 0.137 µM) | 0.1 (≈ 0.137 µM) | 0.1 (≈ 0.137 µM) | 6.25 (≈ 8.57 µM) | 1.56 (≈ 2.14 µM) | MIC [10, 32]: 0.1 µg/mL (≈ 0.137 µM); MIC [11, 33]: 0.2 µg/mL (≈ 0.274 µM)
3 | CC=CC=CC(=O)OCC1C=C(C)C=CC(=O)C(C)CC(CC=O)C(OC2OC(C)CC(N(C)C)C2O)C(C)CCC(=O)OC1CC (stereo not shown) [MKT-2110] | – | – | – | – | – | – | – | – | – | – | – | 0.05 (≈ 0.0758 µM) | 0.20 (≈ 0.303 µM) | 0.10 (≈ 0.152 µM) | 25 (≈ 37.9 µM) | 0.20 (≈ 0.303 µM) | 0.10 (≈ 0.152 µM) | 0.10 (≈ 0.152 µM) | 50 (≈ 75.8 µM) | 12.5 (≈ 18.9 µM) | MIC [10, 32]: 0.10 µg/mL (≈ 0.152 µM); MIC [11, 33]: 0.20 µg/mL (≈ 0.303 µM)
4 | CCC1OC(=O)CCC(C)C(OC2OC(C)CC(N(C)C)C2O)C(CC=O)CC(C)C(=O)C=CC(C)=CC1CNC(=O)Cc1cccnc1 (stereo not shown) [MKT-3216] | – | – | – | – | – | – | – | – | – | – | – | 0.10 (≈ 0.146 µM) | 0.10 (≈ 0.146 µM) | 0.10 (≈ 0.146 µM) | 6.25 (≈ 9.14 µM) | 0.05 (≈ 0.0731 µM) | 0.05 (≈ 0.0731 µM) | 0.05 (≈ 0.0731 µM) | 12.5 (≈ 18.3 µM) | 12.5 (≈ 18.3 µM) | MIC [10, 32]: 0.10 µg/mL (≈ 0.146 µM); MIC [11, 33]: 0.10 µg/mL (≈ 0.146 µM)
5 | CCC1OC(=O)CCC(C)C(OC2OC(C)CC(N(C)C)C2O)C(CC=O)CC(C)C(=O)C=CC(C)=CC1CNC(C)=O (stereo not shown) [MKT-3201] | 0.78 (≈ 1.29 µM) | 0.78 (≈ 1.29 µM) | 0.39 (≈ 0.643 µM) | 1.56 (≈ 2.57 µM) | 0.39 (≈ 0.643 µM) | 0.39 (≈ 0.643 µM) | 0.39 (≈ 0.643 µM) | 12.5 (≈ 20.6 µM) | 50 (≈ 82.4 µM) | 0.2 (≈ 0.33 µM) | 0.2 (≈ 0.33 µM) | – | – | – | – | – | – | – | – | – | –
6 | CCC1OC(=O)CCC(C)C(OC2OC(C)CC(N(C)C)C2O)C(CC=O)CC(C)C(=O)C=CC(C)=CC1CN (stereo not shown) [MKT-3005] | 0.78 (≈ 1.38 µM) | 1.56 (≈ 2.76 µM) | 0.39 (≈ 0.691 µM) | 50 (≈ 88.5 µM) | 0.2 (≈ 0.354 µM) | 0.05 (≈ 0.0885 µM) | 0.2 (≈ 0.354 µM) | 100 (≈ 177 µM) | 100 (≈ 177 µM) | 0.1 (≈ 0.177 µM) | 0.2 (≈ 0.354 µM) | – | – | – | – | – | – | – | – | – | –
7 | CCC1OC(=O)CCC(C)C(OC2OC(C)CC(N(C)C)C2O)C(CC=O)CC(C)C(=O)C=CC(C)=CC1CN=[N+]=[N-] (stereo not shown) [MKT-3004] | 0.2 (≈ 0.339 µM) | 0.1 (≈ 0.169 µM) | 0.1 (≈ 0.169 µM) | 25 (≈ 42.3 µM) | 0.2 (≈ 0.339 µM) | 0.2 (≈ 0.339 µM) | 0.2 (≈ 0.339 µM) | 50 (≈ 84.6 µM) | 50 (≈ 84.6 µM) | 0.1 (≈ 0.169 µM) | 0.1 (≈ 0.169 µM) | – | – | – | – | – | – | – | – | – | –
